Source: patent publication US10100008B2, “Immunostimulating agent” (AJINOMOTO CO., INC., priority 2014, dated 2018)
Each block holds one compound with its values, some of them ahead of it.

How the values were obtained:
[1] = Dispersibility investigation test (turbidity, OD 650 nm; photograph); format: physicochemical; conditions: for dispersion in 5% αCD-added saline (photograph) / dispersion in saline (photograph): after stirring; for dispersion in saline (photograph): 0.256 μmol in 1 mL saline
Method: N,N′-bis(2-tetradecylhexadecanoyl)-L-cystine dimethyl ester (SZ37) and N,N′-bis(2-octadecyleicosanoyl)-L-cystine dimethyl ester (SZ38) (0.256 μmol) were each dispensed to a 2 mL tube containing zirconia beads, saline or 5% α-cyclodextrin (hereinafter to be also simply referred to as αCD)-added saline (1 mL) was added, and the mixture was stirred. The absorbance (OD Value=650 nm) was measured by a microplate reader, and the turbidity was calculated as an index of dispersibility. The measurement method of the turbidity is as follows.
SZ37 and SZ38 (0.256 μmol) were each dispensed to a 2 mL tube containing zirconia beads, saline or 5% αCD-added saline (1 mL) was added, and the mixture was vigorously stirred three times under conditions of 3.15 seconds one time at 6000 rpm. The mixture was dispensed by 200 μL to a 96 well plate, and the absorbance (OD Value=650 nm) was measured by a microplate reader. As a control, kaolinite (1 mg) was dissolved in distilled water (1 L), and the absorbance (OD Value=650 nm) was measured by a microplate reader. The absorbance thereof (OD Value=650 nm) was defined to be turbidity: 1, and the turbidity of each sample was calculated from the ratio with the measured value of kaolinite.
Whether the dispersion state varies depending on the dispersion solvent when SZ37 and SZ38 are dispersed was studied. In the same manner as in Example 10, SZ37 and SZ38 were added 1% β-cyclodextrin (hereinafter to be also referred to simply as βCD)-added saline or 5% αCD-added saline, and the mixture was stirred. The absorbance (OD Value=650 nm) was measured by a microplate reader, and the turbidity was calculated as an index of dispersibility. The measurement method of turbidity as in Example 11.

[2] = test system: anti OVA-specific IgG1 subclass antibody; assay: Adjuvant activity test: anti OVA-specific IgG1 subclass antibody in serum after subcutaneous immunization with OVA; format: in vivo, BALB/c mice; conditions: dorsal-subcutaneous
Method: One week later, the secondary immunization was carried out by dorsal-subcutaneous administration of solutions similar to those of the above-mentioned (1) to (5) again. Two weeks from the secondary immunization, the whole blood and spleen were extracted under anesthesia, and the obtained serum sample was measured for anti OVA-specific IgG1 subclass antibody. A method for measurement of the anti OVA-specific IgG1 subclass antibody in Example 1, and the following Examples 2, 4, 7 to 10 and 13 to 16 is as follows.
To a 96 well plate was added 5 μg/ml OVA at 100 μl/well, and the mixture was incubated at 4° C. overnight. After incubation, the mixture was washed three times with 200 μl of PBS-T (PBS (phosphate buffered saline)+0.05% (v/v) Tween 20) per well, and blocked with 100 μl of 5% FCS (fatal calf serum)/PBS solution per well at room temperature for 1 to 2 hr. Thereafter, the mixture was washed three times with PBS-T (200 μl/well), a diluted serum sample (100 μl/well) or the same amount of 5% FCS/PBS solution as a control was added, and the mixture was incubated at 37° C. for 1 hr. Thereafter, the mixture was washed five times with PBS-T (200 μl/well), a diluted biotinylated anti-mouse IgG1 antibody (100 μl/well) was added, and the mixture was incubated at 37° C. for 45 min. Thereafter, the mixture was washed five times with PBS-T (200 μl/well), a diluted anti-biotin-HRP antibody was added (100 μl/well), and the mixture was incubated at 37° C. for another 30 min. Thereafter, the mixture was washed five times with PBS-T (200 μl/well), TMB substrate solution was added (100 μl/well), and the mixture was incubated at room temperature for 10 to 15 min. Thereafter, a reaction quenching liquid (2N sulfuric acid solution) was added (50 μl/well) to discontinue a color developing reaction, and the absorbance (OD Value=450 nm) was measured by a microplate reader.
One week later, the secondary immunization was carried out by dorsal-subcutaneous administration of solutions similar to those of the above-mentioned (1) to (6) again. Two weeks from the secondary immunization, the whole blood and spleen were extracted under anesthesia, and the obtained serum sample was measured for anti OVA-specific IgG1 subclass antibody.
8-Week-old female BALB/c mice were divided into groups (N=6), and each group was primarily immunized by dorsal-subcutaneous administration of (1) ovalbumin (OVA) ([…] administration group), (2) OVA (10 μg) and, as an adjuvant, N,N′-bis(2-heptylundecanoyl)-L-cystine dimethyl ester (SZ23) ([…]), (3) OVA (10 μg) and N,N′-bis(dodecanoyl)-L-cystine dimethyl ester (SZ24) ([…]), and (4) saline (saline single administration group), each per mouse. One week later, the secondary immunization was carried out by dorsal-subcutaneous administration of solutions similar to those of the above-mentioned (1) to (4) again. Two weeks from the secondary immunization, the whole blood was extracted under anesthesia, and the obtained serum sample was measured for anti OVA-specific IgG1 subclass antibody. SZ24 is disclosed in JP-A-4-230359, which is incorporated herein by reference in its entirety.
8-Week-old female BALB/c mice were divided into groups (N=6), and each group was primarily immunized by dorsal-subcutaneous administration of (1) ovalbumin (OVA) ([…] administration group), (2) OVA (10 μg) and, as an adjuvant, N,N′-bis(2-tetradecylhexadecanoyl)-L-cystine dimethyl ester (SZ37) (0.256 μmol) added to saline, (3) OVA (10 μg) and N,N′-bis(2-octadecyleicosanoyl)-L-cystine dimethyl ester (SZ38) (0.256 μmol) added to saline, (4) OVA (10 μg) and SZ37 (0.256 μmol) dissolved or dispersed in 5% αCD-added saline, and (5) OVA (10 μg) and SZ38 (0.256 μmol) dissolved or dispersed in 5% αCD-added saline, each per mouse. One week later, the secondary immunization was carried out by dorsal-subcutaneous administration of solutions or dispersions similar to those of the above-mentioned (1) to (5) again. […]

[3] = 0.256 μmol in 1 mL 5% αCD-added saline
[4] = 0.256 μmol in 1 mL 5% αCD-added saline, compared to dispersion in saline
[5] = 5% αCD-added saline, compared to dispersion in 1% βCD-added saline
[6] = 0.256 μmol dispersed in 5% αCD-added saline with OVA 10 μg, compared to OVA single administration group (OVA in saline)
[7] = 0.256 μmol in saline with OVA 10 μg, compared to OVA single administration group
[8] = 0.256 μmol dispersed in 5% αCD-added saline with OVA 10 μg, compared to control (OVA in 5% αCD-added saline)
[9] = 2.56 μmol in saline with OVA 10 μg, primary + secondary immunization, serum two weeks after, compared to OVA single administration group

dispersion in 5% αCD-added saline (photograph) [1, 3]: could be uniformly dispersed
turbidity (index of dispersibility) [1, 4]: significantly higher
dispersion in saline (photograph) [1]: could not be dispersed
turbidity (index of dispersibility) [1, 5]: significantly higher
Compound: CCCCCCCCCCCCCCCCCCC(CCCCCCCCCCCCCCCCCC)C(=O)N[C@@H](CSSC[C@H](NC(=O)C(CCCCCCCCCCCCCCCCCC)CCCCCCCCCCCCCCCCCC)C(=O)OC)C(=O)OC [SZ38, N,N′-bis(2-octadecyleicosanoyl)-L-cystine dimethyl ester]
production of anti OVA-specific IgG1 subclass antibody [2, 6]: significantly increased
production of anti OVA-specific IgG1 subclass antibody [2, 7]: did not increase significantly

Compound: CCCCCCCCCCCCC(=O)N[C@@H](CSSC[C@H](NC(=O)CCCCCCCCCCCC)C(=O)OC)C(=O)OC [SZ34, N,N′-bis(tridecanoyl)-L-cystine dimethyl ester]
production of anti OVA-specific IgG1 subclass antibody [2, 8]: significantly increased
production of anti OVA-specific IgG1 subclass antibody [2, 9]: significantly increased

Compound: COC(=O)[C@H](CSSC[C@H](NC(=O)C(CCC(C)CC(C)(C)C)C(C)CC(C)(C)C)C(=O)OC)NC(=O)C(CCC(C)CC(C)(C)C)C(C)CC(C)(C)C (stereo partly drawn) [SZ23′, N,N′-bis[5,7,7-trimethyl-2-(1,3,3-trimethylbutyl)octanoyl]-L-cystine dimethyl ester]
production of anti OVA-specific IgG1 subclass antibody [2, 9]: significantly increased

Compound: CCCCCCCCCCCC(=O)N[C@@H](CSSC[C@H](NC(=O)CCCCCCCCCCC)C(=O)OC)C(=O)OC [SZ24, N,N′-bis(dodecanoyl)-L-cystine dimethyl ester, reference compound]
production of anti OVA-specific IgG1 subclass antibody [2, 9]: did not show a significant difference

Compound: CCCCCCCCCCCCCCCCCCCCCCCCCCCCCC(=O)N[C@@H](CSSC[C@H](NC(=O)CCCCCCCCCCCCCCCCCCCCCCCCCCCCC)C(=O)OC)C(=O)OC [SZ36, N,N′-bis(triacontanoyl)-L-cystine dimethyl ester]
production of anti OVA-specific IgG1 subclass antibody [2, 8]: significantly increased
production of anti OVA-specific IgG1 subclass antibody [2, 9]: significantly increased

Compound: CCCCCCCCCCCCCCCCCCCCCC(=O)N[C@@H](CSSC[C@H](NC(=O)CCCCCCCCCCCCCCCCCCCCC)C(=O)OC)C(=O)OC [SZ66, N,N′-bis(docosanoyl)-L-cystine dimethyl ester]
production of anti OVA-specific IgG1 subclass antibody [2, 8]: significantly increased

Compound: COC(=O)[C@@H](N)CSSC[C@H](N)C(=O)OC [(CyssOMe)2, cystine dimethyl ester, reference compound]
production of anti OVA-specific IgG1 subclass antibody [2, 9]: did not show a significant difference

Compound: CCCCC/C=C\C/C=C\CCCCCCCC(=O)N[C@@H](CSSC[C@H](NC(=O)CCCCCCC/C=C\C/C=C\CCCCC)C(=O)OC)C(=O)OC [SZ28, N,N′-bis(linoleoyl)-L-cystine dimethyl ester, reference compound]
production of anti OVA-specific IgG1 subclass antibody [2, 9]: did not increase significantly

dispersion in 5% αCD-added saline (photograph) [1, 3]: could be uniformly dispersed
turbidity (index of dispersibility) [1, 4]: significantly higher
dispersion in saline (photograph) [1]: could not be dispersed
turbidity (index of dispersibility) [1, 5]: significantly higher
Compound: CCCCCCCCCCCCCCC(CCCCCCCCCCCCCC)C(=O)N[C@@H](CSSC[C@H](NC(=O)C(CCCCCCCCCCCCCC)CCCCCCCCCCCCCC)C(=O)OC)C(=O)OC [SZ37, N,N′-bis(2-tetradecylhexadecanoyl)-L-cystine dimethyl ester]
production of anti OVA-specific IgG1 subclass antibody [2, 6]: significantly increased
production of anti OVA-specific IgG1 subclass antibody [2, 7]: did not increase significantly

Compound: CCCCCCCCCCCCCCCC(=O)N[C@@H](CSSC[C@H](NC(=O)CCCCCCCCCCCCCCC)C(=O)OC)C(=O)OC [SZ22, N,N′-bis(hexadecanoyl)-L-cystine dimethyl ester]
production of anti OVA-specific IgG1 subclass antibody [2, 8]: significantly increased
production of anti OVA-specific IgG1 subclass antibody [2, 9]: significantly increased

Compound: CC(C)CCCCCCCCCCCCCCC(=O)O [ISA, isostearic acid, reference compound]
production of anti OVA-specific IgG1 subclass antibody ([2]; 5.12 μmol in saline with OVA 10 μg, compared to OVA single administration group): did not show a significant difference
